Data taken from patent US8586618B2, “Furanone compounds and lactam analogues thereof” (Biosignal Limited, priority 2006, dated 2013).

Assays:
[1] = system: V. fischeri luxRI system (AHL quorum sensing, gfp fused to luxI promoter); assay: N-acylated homoserine lactone (AHL) quorum sensing assay, GFP reporter strain; format: cell-based, E. coli; settings: for ID40 at 3 nM OHHL: value in brackets; for AIC40: inhibition index: slope of ID40 vs AHL concentration, lower is better
Method: Compounds of the present invention were compared to compounds of the prior art in order using an AHL-quorum sensing assay which utilises a reporter strain that expresses Green Fluorescent Protein (GFP) in the presence of AHL signals. The assay is performed by measuring GFP output in the presence of the compound to be measured and comparing the output to a control. By using multiple samples at varying concentrations of compound and AHL, an inhibition index of compound activity can be generated. The inhibition index used in the present example is the relative amount of compound required to reduce GFP expression to 40% of the control. The inhibition index is termed AIC40. Lower values of AIC40 represent better inhibitors of the AHL quorum sensing system.
The reporter strain of bacterium used in this assay is E. coli into which the V. fischeri luxRI system has been engineered. A gfp gene is fused to the QS controlled luxI promoter as is described in (Andersen et al., 2001, and Andersen et al, 1998).
Measurement of AIC40 (ID40 at 3 nM OHHL)
Determination of the activity of compounds using the E. coli based luxRI construct was performed as follows.
In a 15 mL plastic tube, mix 3 mL of o.n. culture of the lux reporter strain with 12 mL fresh medium, incubate at 37° C. Label six tubes, 10, 20, two 50 and two 100. To each of the tubes, add OHHL (3-oxohexanoyl homoserine lactone) to a final concentration of 10, 20, 50, or 100 nM respectively in the AB medium (add enough medium to distribute across the appropriate number of wells). To the first row of the microplate (row A), add 200 ul of the OHHL/AB mixture. To the remaining rows (B-H) add 100 ul of the OHHL/AB mixture. To the first row (A) add compounds to be tested to the 200 ul mixture of OHHL/AB. Make a dilution series in the first 7 rows by transferring 100 μL from wells in row 1 to wells in row 2 and so on. Discard the remaining 100 μL from row 7. Add 100 μL diluted lux monitor to each well. Incubate the plate 2 hours at 37° C. and measure green fluorescence using the “Victor” plate reader.
Calculate ID40 for each column. To do this, calculate the relative activity in each well. […] Make a plot for each concentration of OHHL vs. the range of compound concentrations used. Calculate the amount of compound needed to lower the relative activity to 40%, this is termed inhibiting dose 40%, ID40. For each compound an inhibition index, AIC40, is found as follows: plot ID40 against its respective AHL concentration; AIC40 is the slope of the best straight line through the plotted points and origin.

[2] = system: LasR quorum sensing system; assay: LasR assay (unstable gfp fused to elastase promoter); format: cell-based, Pseudomonas aeruginosa; settings: for inhibition at 25 µg/mL / inhibition at 100 µg/mL / inhibition at 50 µg/mL: Pseudomonas aeruginosa; for inhibition at 25 µg/mL: read-out: LasR (% inhibition at 25 ug/ml compound); for inhibition at 100 µg/mL: read-out: LasR % inhibition at 100 μg/ml; for inhibition at 50 µg/mL: read-out: LasR % inhibition at 50 μg/ml; for LasR % inhibition at 100 μg/ml: 100 μg/ml compound
Method: Compounds of the present invention were also assayed using a LasR assay. The LasR assay provides a measurement of quorum sensing inhibition activity. […] In the LasR assay, an unstable gfp has been fused to the elastase promoter, so that the amount of Gfp is regulated by the QS system. The plasmid is put into Pseudomonas aeruginosa which makes its own AHL signals. The assay is performed by adding the compounds to be tested to the system at the beginning of the experiment, at different concentrations. Gfp expression is measured at different times during growth, ending at the 24 h time point. The percentage fluorescence was determined at the time point when the fluorescence reached its maximum in the control, usually around 11-12 h after inoculation.

[3] = system: Pseudomonas aeruginosa biofilm; assay: Inhibition of biofilm formation, Petri dish model, Pseudomonas aeruginosa; format: cell-based; settings: 10 μg/mL, 48 h exposure
Method: (§1) Compounds were run in a Petri dish model—where the cells of E. coli or Pseudomonas aeruginosa were exposed to the compound for 48 h. The amount of biofilm was determined by combining image data of the XY (surface cover in one plane) and XZ (depth). The controls gave good biofilm cover and some structure formation.

[4] = system: E. coli biofilm; assay: Inhibition of biofilm formation, Petri dish model, E. coli; format: cell-based; settings: 48 h exposure
Method: as §1

[5] = amount lowering GFP activity to 40%

melting point	Compound	AIC40 [1]	inhibition at 25 µg/mL [2] [%]	further results
190 °C	O=C1C=C(c2ccc(F)cc2)CN1 [Compound 36, 4-(4′-Fluorophenyl)-1H-pyrrol-2(5H)one]	–	–	–
101 to 103 °C	Cc1noc(C)c1C1=CC(=O)OC1 [Compound 7, 4-(3′,5′-Dimethylisoxazol-4′-yl)furan-2(5H)-one]	–	–	–
–	O=C1C=C(c2ccc(OC(F)(F)F)cc2)/C(=C/c2ccc(OC(F)(F)F)cc2)O1 [Compound 21, (Z)-4-(4′-(Trifluoromethoxy)phenyl)-5-(4″-(trifluoromethoxy)benzylidene)furan-2(5H)-one]	4.4	14.7	ID40 at 3 nM OHHL [1, 5]: 148; inhibition at 100 µg/mL [2]: 47%
127.5 to 129 °C	O=C1C=C(c2ccc(C(F)(F)F)cc2)/C(=C/c2ccc(C(F)(F)F)cc2)O1 [Compound 17, (Z)-4-(4′-(trifluoromethyl)phenyl)-5-(4″-(trifluoromethyl)benzylidene)furan-2(5H)-one]	–	–	–
72 to 74 °C	O=C1C=C(Br)CO1 [Compound 11, 4-Bromofuran-2(5H)-one]	–	–	–
49 to 50 °C	O=C1C=C(c2ccccc2C(F)(F)F)CO1 [Compound 9, 4-(2′-Trifluoromethylphenyl)furan-2(5H)-one]	–	–	–
–	O=C1C=C(c2cccc(C(F)(F)F)c2)/C(=C/c2cccc(C(F)(F)F)c2)O1 [Compound 24]	–	19	inhibition at 100 µg/mL [2]: 35%
108 to 110 °C	O=C1C=C(c2ccccc2)/C(=C/c2cccc(C(F)(F)F)c2)O1 [Compound 13]	–	–	–
–	(Z)-5-(4-fluorobenzylidene)furan-2(5H)-one [Compound 28]	–	–	LasR (% inhibition at 25 ug/ml compound) [2]: 13%; LasR % inhibition at 100 μg/ml [2]: 53%
116 to 117 °C	O=C1C=C(c2ccc(C(F)(F)F)cc2C(F)(F)F)CO1 [Compound 15, 4-(2′,4′-Bis(trifluoromethyl)phenyl)furan-2(5H)-one]	–	–	–
–	(Z)-4-(3′-(Trifluoromethyl)phenyl)-5-(3″-(trifluoromethyl)benzylidene)furan-2(5H)-one [Compound 23]	4.64	–	ID40 at 3 nM OHHL [1, 5]: 22.1; LasR (% inhibition at 25 ug/ml compound) [2]: 23%; LasR % inhibition at 100 μg/ml [2]: 46.4%
–	CC1OC(=O)C=C1c1ccccc1 (centres unmarked) [Compound 27, 5-methyl-4-phenyl-2(5H)furanone]	–	9	inhibition at 100 µg/mL [2]: 57%
–	(Z)-5-(4-(trifluoromethyl)benzylidene)furan-2(5H)-one [Compound 29]	–	–	LasR (% inhibition at 25 ug/ml compound) [2]: 15.8%; LasR % inhibition at 100 μg/ml [2]: 38.4%
–	O=C1C=C(Br)/C(=C/c2cccs2)O1 [Compound 26]	–	30	inhibition at 100 µg/mL [2]: 76%
233 to 235 °C (dec.)	O=C1C=C(c2ccc(Br)cc2)CN1 [Compound 35, 4-(4′-Bromophenyl)-pyrrol-2(5H)-one]	–	–	–
–	O=C1C=C(c2ccc(C(F)(F)F)cc2)CO1 [Compound 3, 4-(4′-Trifluoromethylphenyl)furan-2(5H)-one]	0.77	22	ID40 at 3 nM OHHL [1, 5]: 4.37
–	O=C1C=C(c2ccc(F)cc2F)CO1 [Compound 1, 4-(2′,4′-Difluorophenyl)furan-2(5H)-one]	7.6	–	ID40 at 3 nM OHHL [1, 5]: 17.83
–	O=C1C=C(c2ccc(F)cc2)CO1 [Compound 2, 4-(4′-Fluorophenyl)furan-2(5H)-one]	14.39	–	ID40 at 3 nM OHHL [1, 5]: 39.4
–	O=C1C=C(Br)/C(=C/c2ccsc2)O1 [Compound 25]	–	20	inhibition at 100 µg/mL [2]: 78%

Compound	melting point	AIC40 [1]	inhibition at 25 µg/mL [2] [%]	further results
O=C1C=C(c2cccs2)CO1 [Compound 6, 4-(Thiophen-2′-yl)furan-2(5H)-one]	94 to 96.5 °C	24.6	10	ID40 at 3 nM OHHL [1, 5]: 58.7; % biofilm [3]: 77%; % biofilm ([4]; 25 μg/mL): 87.7%; % biofilm ([4]; 40 μg/mL): 97%
O=C1C=C(c2ccc(OC(F)(F)F)cc2)CO1 [Compound 5, 4-(4′-Trifluoromethoxyphenyl)furan-2(5H)-one]	122 to 123 °C	5.9	19.3	ID40 at 3 nM OHHL [1, 5]: 11.37; inhibition at 50 µg/mL [2]: 43.2%
O=C1C=C(c2ccsc2)CO1 [Compound 14, 4-(Thiophen-3′-yl)furan-2(5H)-one]	130.5 to 132 °C	4.9	15	ID40 at 3 nM OHHL [1]: 60 µM
Cn1cc(C2=CC(=O)OC2)cn1 [Compound 12, 4-(N-Methylpyrazol-4′-yl)furan-2(5H)-one]	181 to 182 °C	–	–	inhibition at 50 µg/mL [2]: 22.9%
O=C1C=C(c2cccc(C(F)(F)F)c2)CO1 [Compound 8, 4-(3′-Trifluoromethylphenyl)furan-2(5H)-one]	124 to 125 °C	–	22	inhibition at 50 µg/mL [2]: 42.2%
